# Literature values as cited in paper PMC8923172 (Antimicrobial Agents and Chemotherapy, 2022).
# Tested on: LPS-induced ALI
# Conditions: 2 mg/kg; cited from earlier work
structure (smiles),measurement,value
C[C@@H]1C[C@H]2[C@@H]3CCC4=CC(=O)C=C[C@]4(C)[C@@]3(F)[C@@H](O)C[C@]2(C)[C@@]1(O)C(=O)CO [dexamethasone],decrease in IFN-γ in bronchoalveolar lavage fluid,~43%
same,decrease in IL-6 in bronchoalveolar lavage fluid,approximately 26%
same,decrease in IP-10 (CXCL10) in bronchoalveolar lavage fluid,~50%
